EP4740950A1, “PROPHYLACTIC OR AMELIORATING AGENT FOR CACHEXIA” (The University of Osaka, priority 2023, dated 2025)

How the values were obtained:
myoblasts (C2C12) = assay: in vitro differentiation induction of myoblasts (C2C12) into skeletal muscle cells in medium containing Colon26 culture supernatant (myotube formation); assay type: cell-based, Mouse; conditions: Colon26 cells treated at 25 µM for 24 hours; 50% supernatant in horse serum-supplemented DMEM; C2C12 observed on day 9, phase-contrast microscope
Protocol: Mouse myoblasts (C2C12, RIKEN cell bank) and mouse colon cancer cells (Colon26, RIKEN cell bank) were used. The culture medium used was DMEM medium (Sigma-Aldrich Japan) or RPMI medium (Sigma-Aldrich Japan) supplemented with 10% fetal bovine serum (Gibco), 100 units/mL penicillin G (Sigma-Aldrich Japan) and 100 µg/mL streptomycin (Sigma-Aldrich Japan).
(§1) Colon26 cells were seeded at a concentration of 5 × 10^4 cells/cm^2 in a culture dish with a diameter of 10 mm, and cultured at 37°C, 5% CO2 to 80% to 90% confluency. The medium was then changed to a medium supplemented with 16:0 lysophosphatidylcholine (hereinafter referred to as LPC), 18:0 LPC, 16:0 phosphatidylcholine (hereinafter referred to as PC), or 18:0 PC (all manufactured by Avanti Polar Lipids) at a final concentration of 25 µM, or a medium not containing LPC or PC. The cells were cultured for another 24 hours. After the cells were washed with PBS, the medium was changed to serum-free RPMI medium, and the cells were cultured for another 48 hours. The medium was collected and centrifuged at 4°C and 3000 rpm for 20 minutes to precipitate the cellular components. The supernatant was sterile-filtered using a 0.22 µm sterile filter (Merck Millipore) and stored at -80°C until use.
C2C12 cells were cultured to 80% to 90% confluency in a 6-well culture plate. The medium was changed to DMEM medium supplemented with horse serum (Gibco, final concentration: 2%) or horse serum-supplemented DMEM medium containing 50% supernatant of one of the five types prepared in the above (2), and the cells were cultured for 9 days to induce differentiation into skeletal muscle cells. On day 9, the morphology of the cells was observed under a phase-contrast microscope.

Mesenchymal OP9 cells = assay: in vitro differentiation induction of mesenchymal cells (OP9) into adipocytes in medium containing Colon26 culture supernatant (Oil Red O staining); assay type: cell-based; conditions: Colon26 cells treated at 25 µM; 10% supernatant in adipocyte differentiation medium; OP9 observed on day 7
Protocol: as §1
Mesenchymal OP9 cells (RIKEN cell bank) were used. The culture medium used was MEM medium (Sigma-Aldrich Japan) supplemented with 20% fetal bovine serum (Gibco), 100 units/mL penicillin G (Sigma-Aldrich Japan), 100 µg/mL streptomycin (Sigma-Aldrich Japan), and 2 mM L-glutamine.
OP9 cells were seeded at a concentration of 7 × 10^3 cells/cm^2 in a 96-well culture plate and cultured to confluency. […]

IL-6 = IL-6 levels in culture supernatant of colon cancer cells (Colon26) treated with PC or PS (ELISA); assay type: cell-based, mouse; conditions: 16:0 PC or 18:0 PC 25 µM, PS 100 µg/ml, 24 hours; then 48 hours in serum-free RPMI
Protocol: Colon26 cells were seeded at a concentration of 5 × 10^4 cells/cm^2 in the medium used in Example 1 in a culture dish with a diameter of 10 mm, and cultured at 37°C, 5% CO2 to 80% to 90% confluency. To the culture dish, 16:0 PC or 18:0 PC was added at a final concentration of 25 µM, and PS (Larodan) was added at a final concentration of 100 µg/ml. The cells were cultured for 24 hours. After the cells were washed with PBS, the medium was changed to serum-free RPMI medium (Wako), and the cells were cultured for another 48 hours. The medium was collected and centrifuged at 4°C and 3000 rpm for 20 minutes to precipitate the cellular components. The supernatant was filtered through a 0.22 µm sterile filter to remove precipitates from the supernatant. The […] IL-6 level in the supernatant was measured using LEGEND MAX Mouse IL-6 ELISA Kit (BioLegend).

[1] = tested on: tumor-bearing mice (Colon26); assay: muscle weight in Colon26 tumor-bearing mice, intravenous PC; assay type: in vivo; conditions: 3 mg/kg via the tail vein every 3 or 4 days from one week after transplantation; day 36 post-transplantation
Protocol: (§2) Male BalB/c mice (SLC) at 8 to 9 weeks old were used. Colon26 cells were cultured to 80% to 90% confluency in the same manner as in Example 1 and suspended in PBS to a concentration of 1 × 10^6 cells/mL. Then, 100 µL of the cell suspension was subcutaneously transplanted into the right upper flank of the mice. Every 3 or 4 days, the body weight of the mice was measured, and the general conditions of the mice were observed. The tumor size [1/2(a × b^2) mm^3] was calculated by measuring the maximum diameter (a) and the minimum diameter (b) of the tumor.
(§3) Hydrogenated PC (HSPC; Avanti Polar Lipids) was dissolved in ethanol to a concentration of 50 mM and stored at -20°C until use.
(§4) We set up three groups of mice: a non-cancer cell transplantation group (control), a cancer cell transplantation group with administration of a solvent (PBS), and a cancer cell transplantation group with administration of PC (PC). […]
(§5) The mice were euthanized on day 36 post-transplantation of Colon26 cells, and the gastrocnemius and tibialis muscles were harvested to measure the weight. Twenty milligrams of each muscle tissue was homogenized using High Power Homogenizer ASG50 (AS ONE Corporation), and the total RNA was recovered using RNeasy Fibrous Mini Kit (Qiagen). cDNA was synthesized from the total RNA using PrimeScript RT reagent Kit (Takara) and subjected to quantitative PCR (qPCR). […]

MuRF-1 gene = assay: quantitative PCR of MuRF-1 gene in muscle of Colon26 tumor-bearing mice, intravenous PC; assay type: in vivo, mouse; conditions: 3 mg/kg via the tail vein every 3 or 4 days, day 36 post-transplantation
Protocol: as §2, §3, §4, §5

Atrogin-1 gene = assay: quantitative PCR of Atrogin-1 gene in muscle of Colon26 tumor-bearing mice, intravenous PC; assay type: in vivo, mouse; conditions: 3 mg/kg via the tail vein every 3 or 4 days, day 36 post-transplantation
Protocol: as §2, §3, §4, §5

[2] = tested on: tumor-bearing mice (Colon26); assay: weight of epididymal fat tissue in Colon26 tumor-bearing mice, intravenous PC; assay type: in vivo; conditions: 3 mg/kg via the tail vein every 3 or 4 days; day 36 post-transplantation
Protocol: (§6) Mice were transplanted with Colon26 cells in the same manner as in Example 3, and one week later, divided into three groups: a non-cancer cell transplantation group (control), a cancer cell transplantation group with administration of a solvent (PBS, n = 20), and a cancer cell transplantation group with administration of PC (PC, n = 20). PC and a solvent (PBS) were administered by the same dosing schedule as that in Example 3. During the dosing period, the general conditions of the mice were observed every day. The survival rate was calculated by counting the number of dead individuals. The surviving mice were euthanized on day 36 post-transplantation of Colon26 cells, and the epididymal fat tissue was harvested to measure the weight (groups of n = 8 each). Total RNA was recovered from less than 100 mg of the epididymal fat tissue, and cDNA was synthesized and subjected to qPCR in the same manner as in Example 3 (groups of n = 2 each). The reagents and devices were the same as those used in Example 3. The primer set shown below was used to detect the Leptin gene, which is known to have the function of maintaining fat tissue. The primer set for amplification of the mouse GAPDH gene was the same as that used in Example 3.

Leptin gene = assay: quantitative PCR of Leptin gene in epididymal fat tissue of Colon26 tumor-bearing mice, intravenous PC; assay type: in vivo, mouse; conditions: 3 mg/kg via the tail vein every 3 or 4 days, day 36 post-transplantation
Protocol: as §6
Primer set for amplification of mouse Leptin gene: • sense 5'-[…]-3' (SEQ ID NO: 7), and • anti-sense 5'-GCCATCCAGGCTCTCTGG-3' (SEQ ID NO: 8).

[3] = tested on: tumor-bearing mice (Colon26); assay: survival rate of Colon26 tumor-bearing mice, intravenous PC; assay type: in vivo; conditions: 3 mg/kg via the tail vein every 3 or 4 days; compared with solvent (PBS) group
Protocol: as §6

## CCCCCCCCCCCCCCCC(=O)OCC(O)COP(=O)([O-])OCC[N+](C)(C)C (stereo not drawn) [16:0 LPC, 16:0 lysophosphatidylcholine]
Myoblasts (C2C12)
  myotube formation: myotube formation was observed
Mesenchymal OP9 cells
  adipocyte differentiation (Oil Red O): inhibition of adipocyte differentiation was prevented

## CCCCCCCCCCCCCCCC(=O)OCC(COP(=O)([O-])OCC[N+](C)(C)C)OC(=O)CCCCCCCCCCCCCCC (stereo not drawn) [16:0 PC, 16:0 phosphatidylcholine]
Myoblasts (C2C12)
  myotube formation: myotube formation was observed
IL-6
  IL-6 levels in the culture supernatant of Colon26 cells: direct inhibitory effect on the expression of IL-6 in cancer cells

## CCCCCCCCCCCCCCCCCC(=O)OCC(O)COP(=O)([O-])OCC[N+](C)(C)C (stereo not drawn) [18:0 LPC]
Myoblasts (C2C12)
  myotube formation: myotube formation was observed

## CCCCCCCCCCCCCCCCCC(=O)OCC(COP(=O)([O-])OCC[N+](C)(C)C)OC(=O)CCCCCCCCCCCCCCCCC (stereo not drawn) [18:0 PC]
Myoblasts (C2C12)
  myotube formation: myotube formation was observed
IL-6
  IL-6 levels in the culture supernatant of Colon26 cells: direct inhibitory effect on the expression of IL-6 in cancer cells

## Hydrogenated PC
[1]
  weight of the gastrocnemius muscle (Gastrocnemius): muscle weight loss was not observed
  weight of the tibialis muscle (Tibialis): muscle weight loss was not observed
MuRF-1 gene
  expression of the MuRF-1 gene: comparable to that in normal mice
Atrogin-1 gene
  expression of the Atrogin-1 gene: comparable to that in normal mice
[2]
  weight of the epididymal fat tissue: weight loss in the fat tissue was not observed
Leptin gene
  expression of the Leptin gene: comparable to that in normal mice
[3]
  survival rate: improved

## phosphatidylserine [PS]
IL-6
  IL-6 levels in the culture supernatant of Colon26 cells: direct inhibitory effect on the expression of IL-6 in cancer cells
